From PMC5995184, “Potent anti-leukemic activity of a specific cyclin-dependent kinase 9 inhibitor in mouse models of chronic lymphocytic leukemia” (Oncotarget, 2018)
Where two headings read alike, the source gives them in different places.

System: primary CLL cells (CLL PBMC)
Experiment: Primary CLL cells apoptosis, viability, MCL-1/BCL-2 (flow cytometry)
Assay type: cell-based, human
Settings: for IC50: Homo sapiens, CLL cell, read-out: IC50, absolute number of viable CLL PBMC
Procedure: The MEC-1 cell line was obtained from the DSMZ (Braunschweig, Germany) and was cultured in RPMI (10% fetal bovine serum). A LDC526 stock solution was prepared with DMSO, diluted and added to the cultures to reach the specified concentrations. Samples (percentage of CD19+CD5+ CLL cells >90%) of n=37 CLL patients (Table 1) and n=6 healthy normal donor controls were used for experiments after obtaining informed consent according to institutional guidelines, approved by the Ethics Commission of the University of Essen-Duisburg. Peripheral blood mononuclear cells (PBMC) were isolated using Lymphoprep ([…] Technologies, Cologne, Germany) density gradient centrifugation and were used directly for NSG transplantation or in vitro experiments. Untouched normal donor B cells were isolated with a B cell isolation kit (Miltenyi, Bergisch Gladbach, Germany) according to the manufacturer’s instructions. For in vitro experiments, cells were maintained in RPMI supplemented with 10% fetal bovine serum, penicillin and streptomycin.
Apoptosis and cell death were determined by using Annexin V (BD Biosciences, Heidelberg, Germany) and 4′,6-Diamidin-2-phenylindol (DAPI, Sigma-Aldrich) staining. Erythrocytes of murine peripheral blood samples were lysed with NH4Cl hypotonic solution. Single cell suspensions of murine spleens were prepared as previously described. Murine cells were stained with antibodies directed against murine CD3 (clone 145-2C11), CD5 (53-7.3) and CD19 (1D3), respectively. For the detection of human cells in NSG spleens antibodies against human CD3 (clone SK7), CD4 (SK3), CD5 (L17F12), CD8 (SK1), CD19 (J3-119 or SJ25C1) and CD45 (2D1) were used (purchased from BD Bioscience, Biolegend and Beckman Coulter). Flow cytometric analysis was carried out on a LSRII flow cytometer (BD Biosciences, Heidelberg, Germany). Flow cytometric data were analyzed with BD FACSDiva or FlowJo software (FLOWJO, LLC, Ashland, OR, USA). Intracellular staining for MCL-1 and BCL-2 (anti-MCL-1 [clone D2W9E, Cell Signaling Technology, Leiden, The Netherlands] and matched isotype control [clone DA1E, Cell Signaling Technology]; anti-BCL-2 [clone Bcl-2/100, BD Bioscience] and matched isotype control [clone MOPC-21, BD Bioscience]) within MEC-1 and primary CLL cells was performed with the FoxP3 / Transcription factor staining buffer set (eBioscience/Thermo Fisher Scientific, Dreieich, Germany) according to the manufacturer’s instructions. Before permeabilization and antibody incubation cells were stained with a fixable viability dye (eFluor 450, eBioscience/Thermo Fisher Scientific). Before adding the anti-MCL-1 and anti-BCL-2 antibodies permeabilized cells were blocked with 2% mouse serum and 2% rabbit serum (Sigma-Aldrich) in permeabilization buffer. Intracellullar murine lymphocyte staining for Bcl-2 was carried out with the BD Cytofix/Cytoperm kit according to the manufacturer’s instructions. A Hamster Anti-mouse Bcl-2 (clone 3F119, BD Biosciences) and a corresponding isotype control (clone A19-3) were used. Dead cells and doublets were excluded by and FSC/SSC gating and positive DAPI or eFluor 450 viability dye staining, respectively. To assess the impact of LDC526 on the cell-cycle status of MEC-1 cells we used the BrdU Flow Kit according to the manufacturer’s protocol (BD Bioscience). BrdU was added to the media 30 minutes before commencing the analysis.
Data were analyzed with GraphPad Prism 7 software. Differences were assessed by unpaired or paired Student t tests if not indicated otherwise. Two-sided probabilities of less than 0.05 were considered significant. Nonlinear regression sigmoidal dose-response curve fit was used to determine the IC50 values and to generate graphs.

[1] = 4 hours, increasing concentrations

With `COc1cc(F)ccc1-c1ncnc(Nc2cccc(CS(N)(=O)=O)c2)n1` [LDC526, (3-((4-(4-fluoro-2-methoxyphenyl)-1,3,5-triazin-2-yl)amino)phenyl)methane-sulfonamide] the “apoptosis of primary CLL PBMCs (Annexin V)” value (4 hours, 500 and 1000 nM) was “significantly increased percentages of apoptosis”, the “BCL-2 levels in primary CLL cells” value [1] was “not significantly altered” and the “MCL-1 protein levels in primary CLL cells” value [1] was “significantly decreased MCL-1 protein levels”. For the same compound, the IC50 (24 hours incubation) was 340 nM, the IC50 (48 hours incubation) was 280 nM and the “LDC526-induced effect between prognostic CLL subgroups (FISH, CD38, Binet, therapy)” value (high-risk versus low-risk) was “no statistically significant differences”.
